Source: patent US20260151620A1, “IMPLANT MEDICAL DEVICES” (Case Western Reserve University, priority 2021, published 2026)

Assay: In vitro drug release from drug-loaded titania nanotube arrays (TNAs) in PBS at 37° C.
Format: physicochemical
Description: A total of 500 μL of DEX solution was pipetted onto the nanotube surface (pipetting 100 μL for 5 times) and allowed to dry in fume hood for an hour, ensuring that the nanotube array surface was completely dry prior to each pipetting and the release studies. Then, DEX-loaded TNA samples were immersed in Eppendorf tubes containing 100 μL of PBS (1× phosphate buffered saline) and were placed in a water bath kept at 37° C. For release measurements, all 100 μL from each releasing sample tube was transferred to a 96-well plate and measured using a SpectraMax M 2 Microplate Reader. The absorption of DEX was measured at 244 nm. After each measurement, the releasing medium was fully replaced with […] of fresh PBS.

[1] = 37° C., TNAs on polyimide and foil substrates
[2] = 37° C., TNAs on polyimide and foil substrates, PBS

| SMILES | burst after contacting the PBS [1] | release profile [2] | release profile (37° C., ~0.5 μm-deep, 100 nm-diameter TNAs on polyimide) | relationship between nanotube diameter and release rate (nanotube diameters within the 30 nm-100 nm range) | difference in release data between the two drug loading methods (normal pipetting vs soaking) | duration of linear release [2] | duration of sustained release (TNA 2 micron long, 30 nm pore size, 37° C. (FIG. 6B)) |
| --- | --- | --- | --- | --- | --- | --- | --- |
| C[C@@H]1C[C@H]2[C@@H]3CCC4=CC(=O)C=C[C@]4(C)[C@@]3(F)[C@@H](O)C[C@]2(C)[C@@]1(O)C(=O)COP(=O)(O)O [Dexamethasone, dexamethasone sodium phosphate] | no indication of a large burst | linear | linear | weak relationship | No significant difference | – | – |
| Oc1ccc(C=Cc2cc(O)cc(O)c2)cc1 [Resveratrol] | no indication of a large burst | linear | – | – | – | several weeks | nearly one month |
